What all share (format): cell-based
In assay [1] the test system is P. fluorescens strain ATCC 13525. The assay can be described thus: Biofilm prevention screen (96-well microplate, crystal violet). Particulars: Pseudomonas fluorescens, positive = prevention, negative = enhancement of biofilm formation, quadruplicate, read-out: average percentage reduction of biofilm formed relative to DMSO controls; for inhibition at 32 µM: ATCC13525, 32 μM; for inhibition at 160 µM: ATCC13525, 160 μM; for inhibition at 390 µM: ATCC13525, 390 μM. The method, then:
(§1) Overnight cultures of 3 mL are made of P. aeruginosa strain PAO1 (grown in R2A medium (Handbook of Microbiological Media; CRC Press, 1997, second edition, R. M. Atlas, ed.), modified to omit Mg^2+ but to include 0.3–0.5% fructose (pH 7.0) and 3 μM ferrous ammonium sulfate), P. fluorescens strain ATCC 13525 (grown in R2A modified to omit Mg^2+ but to include 0.3–0.5% sodium pyruvate (pH 7.0)), S. epidermidis strain ATCC 35984 (grown in a ¼ dilution of TSB (Handbook of Microbiological Media; CRC Press, 1997, second edition, R. M. Atlas, ed.) supplemented with 1% fructose (pH 7.0) and 3 μM ferrous ammonium sulfate). To each type of growth medium, HEPES (pH 7.3) is optionally added to a final concentration of 10 mM.
(§2) To PS, PVC, or PP (preferably PP or PVC) round-bottom, 96-well microplates containing 100 μl per well of the respective growth medium as described above, compounds to be tested (dissolved in DMSO) are added and mixed, to give a final concentration of 250–500 μM. These microplates then also are used to make successive dilutions of the compounds in the same respective growth medium to yield microplates containing final concentrations of, for example, 160 μM and 32 μM of the same set of compounds. Control wells are included in the dilution series that contain only DMSO. From the 3 ml overnight cultures, each of the three dilution plate sets is inoculated with 5 μl per well of a 1:1 dilution in the same liquid growth media of the appropriate culture. The covered plate is then incubated with shaking, at 30° C. (for P. aeruginosa or P. fluorescens) or 37° C. (for S. epidermidis), at 200 rpm, for 16–26 hours, in a humidity controlled environment.
(§3) Cells present in biofilm attached to the microplate surface are stained with CV either after removal of the liquid from each well, followed by rinsing three times (aspiration and addition) with 150 μl per well phosphate buffered saline solution (PBS) and final addition of 100 μl per well of PBS, or by direct addition of stain to bacterial cultures without rinsing. To 100 μl per well of PBS or of bacterial culture, 25 μl/well of 1% CV solution (in ˜10% ethanol) is added. After incubation at room temperature for 45 minutes, the dye solution is removed from the plates. Residual dye is immediately removed by gentle rinsing with a stream of deionized water by filling and inverting the plates 4–5 times, or by using an automated pipettor. Rinsed plates are air-dried at room temperature for 0.5–2 hours. Bound dye is extracted by the addition of 150 μL per well of 95% ethanol, followed by vigorous mixing for 10–15 seconds and incubation for 45 minutes at room temperature without shaking. Subsequently, either undiluted or diluted (in ethanol) samples of extracted CV are transferred to flat bottom, polystyrene microtiter plates and absorbances at 586 nm were measured in a microplate reader. Readings from wells containing compounds are compared to the average of data from control wells that contain only DMSO. Replicate samples are measured, and results are reported as averages of the replicate well data points.
(§4) Data are expressed in terms of the average percentage reduction of biofilm formed in the presence of each compound, relative to the DMSO controls, for quadruplicate samples. Assays are run using the three compound concentrations indicated. Positive numbers indicate prevention of biofilm formation by a compound, and negative numbers indicate enhancement of biofilm formation by a compound (percentage coefficients of variation are ≦10%).

The subject of assay [2] is P. aeruginosa strain PAO1. The assay is described as above. Particulars: Pseudomonas aeruginosa, positive = prevention, negative = enhancement of biofilm formation, quadruplicate, read-out: average percentage reduction of biofilm formed relative to DMSO controls. The method, then:
as §1, §2, §3, §4

In assay [3] the test system is S. epidermidis strain ATCC 35984. The assay is described as above. The note with it: Staphylococcus epidermidis, positive = prevention, negative = enhancement of biofilm formation, quadruplicate, read-out: average percentage reduction of biofilm formed relative to DMSO controls; for inhibition at 32 µM: ATCC35984, 32 μM; for inhibition at 160 µM: ATCC35984, 160 μM; for inhibition at 390 µM: ATCC35984, 390 μM. The method, then:
as §1, §2, §3, §4

Assay [4] deals with P. fluorescens strain ATCC 13525. The assay can be described thus: Improved biofilm dispersion screen (already-formed biofilms, crystal violet). The note with it: Pseudomonas fluorescens, ATCC13525, 20 mM NaOH step, positive = dispersion, negative = enhancement of pre-existing biofilm, quadruplicate, read-out: average percentage reduction of biofilm relative to the two control values (dispersion). The method, then:
(§5) A modification of method disclosed in Reference Example 2, which greatly improves the sensitivity and reproducibility of the dispersion screen is hereby disclosed. […] In the modification described herein, compounds are added in the presence of the fresh liquid growth media, such that the resultant biofilms continue to grow, unless a test compound triggers their dispersion. Overnight cultures are made as above, and 100 μL of the appropriate liquid growth media are dispensed into duplicate 96 well microplates—in this fashion, two identical microplates are set up for each bacterial species to be assayed. Neither compounds nor DMSO are added prior to the inoculation of bacteria, and growth in the duplicate plates for 24 hours is allowed using the conditions specified in Reference Example 1. After growth of biofilm to be tested in the wells, cells present in biofilm attached to one of the duplicate microplates is stained with CV, quantitated as described in Reference Example 1, and the data for the entire plate averaged, resulting in a growth control value, t0. The remaining replicate of each microplate pairs is treated with compounds in DMSO, or DMSO alone for control wells, by first removing the cell suspensions from the wells, then adding fresh 100 μL volumes of the same appropriate liquid growth media, followed by direct addition and mixing of the compound DMSO solutions to give final compound concentrations of 390 μM. Incubation of the compound-containing microplates is then continued for an additional 22–26 hours using the same conditions described in Reference Example 1. Cell suspensions are then removed, 100 μL per well of a 0 mM NaOH (S. epidermidis), 20 mM NaOH (P. fluorescens), or 30 mM NaOH (P. aeruginosa) solution in PBS is added, and incubation at room temperature is allowed for 30 minutes. No addition of NaOH is made to the S. epidermidis suspension since a test assay indicated no amplification by base with S. epidermidis. The microplates are subsequently rinsed three times with 150 μL per well of PBS, followed by final liquid removal, staining with CV and quantitation as described in Reference Example 1. Data for each well that contained compound result in a compound value, R, and data for control wells that contained DMSO only are averaged to generate a second control value, t24. The effect of each compound tested on dispersion of the biofilm compared to the two control values is calculated thus: [formula] […] Data are expressed in terms of the average percentage reduction of biofilm formed in the presence of each compound, relative to the two control values, for quadruplicate samples. Assays are run as described above, using compound concentrations of 390 μM. Positive numbers indicate dispersion (reduction) of pre-existing biofilms by a compound, and negative numbers indicate enhancement (stimulation of growth) of pre-existing biofilms by a compound (percentage coefficients of variation are ≦15%).

Assay [5] relates to P. aeruginosa strain PAO1. The description is as above. Particulars: Pseudomonas aeruginosa, 30 mM NaOH step, positive = dispersion, negative = enhancement of pre-existing biofilm, quadruplicate, read-out: average percentage reduction of biofilm relative to the two control values (dispersion). As for the experimental part: as §5
Assay [6] relates to S. epidermidis strain ATCC 35984. The assay is described as above. Particulars: Staphylococcus epidermidis, ATCC35984, no NaOH, positive = dispersion, negative = enhancement of pre-existing biofilm, quadruplicate, read-out: average percentage reduction of biofilm relative to the two control values (dispersion). The method, then: as §5

Regarding `CCCCCCNC(=O)C1CCCN1C(C)=O` (racemic) [Compound 7], the inhibition at 32 µM in assay [1] was -11%; in assay [2], -13%; in assay [3], -10%. Further, the inhibition at 160 µM was -30% in assay [1], -20% in assay [2] and 6% in assay [3]. Moreover, the inhibition at 390 µM was -32% in assay [1]; -13% in assay [2]; -11% in assay [3]; -4% in assay [4]; -6% in assay [5]; 0% in assay [6].

For the compound `CCCCCCCCNC(=O)C1CCCN1C(C)=O` (centres unmarked) [Compound 8], the inhibition at 32 µM is -12% in assay [1], -9% in assay [2] and -13% in assay [3]. In addition, the inhibition at 160 µM is -26% in assay [1], -11% in assay [2] and -22% in assay [3]. Besides, the inhibition at 390 µM in assay [1] is -24%; in assay [2], -9%; in assay [3], -32%; in assay [4], -1%; in assay [5] it was -30%; in assay [6] it was 0%.

`CCCCCCCCCCNC(=O)C1CCCN1C(C)=O` (centres unmarked) [Compound 9]: the inhibition at 32 µM in assay [1] is -6%; in assay [2] it was -6%; in assay [3], -21%. The values for the inhibition at 160 µM in assay [1], in assay [2] and in assay [3] were -9%, -4% and -69%, respectively. Besides, the inhibition at 390 µM in assay [1] was 0%; in assay [2], -26%; in assay [3] it was 33%; in assay [4], -1%; in assay [5], -68%; in assay [6] it was 21%.

Consider `CCCCCCNC(=O)[C@@H]1CCCN1C(=O)OC(C)(C)C` [Compound 10], for which the inhibition at 32 µM in assay [1] was -1%; in assay [2], -7%; in assay [3] it was -18%. In addition, the inhibition at 160 µM is -5% in assay [1], -16% in assay [2] and -17% in assay [3]. Also, the inhibition at 390 µM in assay [1] was -6%; in assay [2], -16%; in assay [3], -25%; in assay [4], -2%; in assay [5] it was -9%; in assay [6], -6%.

On to `CCCCCCCCNC(=O)[C@@H]1CCCN1C(=O)OC(C)(C)C` [Compound 11], for which the inhibition at 32 µM in assay [1] was -4%; in assay [2] it was -6%; in assay [3], 10%. In addition, the figures for the inhibition at 160 µM in assay [1], in assay [2] and in assay [3] were -6%, -18% and -60%, respectively. The inhibition at 390 µM is -26% in assay [1]; -15% in assay [2]; 37% in assay [3]; -23% in assay [4]; -56% in assay [5]; 0% in assay [6].

As to `CCCCCCCCCCNC(=O)[C@@H]1CCCN1C(=O)OC(C)(C)C` [Compound 12, N-(tert-Butoxycarbonyl)-L-proline n-decyl amide], the inhibition at 32 µM in assay [1] is -16%; in assay [2] it was 6%; in assay [3] it was -21%. For the same compound, the inhibition at 160 µM in assay [1] was -42%; in assay [2] it was -45%; in assay [3], -2%. In addition, the inhibition at 390 µM in assay [1] was -37%; in assay [2], -32%; in assay [3], 31%; in assay [4] it was -30%; in assay [5], -30%; in assay [6] it was 0%.

For `CCCCCCCCCCCCNC(=O)[C@@H]1CCN1C(=O)OC(C)(C)C` [Compound 286], the inhibition at 32 µM in assay [1] is -9%; in assay [2] it was -5%; in assay [3], -15%. For the same compound, the inhibition at 160 µM is -60% in assay [1], -22% in assay [2] and -29% in assay [3]. Besides, the inhibition at 390 µM in assay [1] is -98%; in assay [2], -54%; in assay [3] it was 12%; in assay [5], -83%; in assay [6], 0%.
